Measured values taken from patent US7402574B2, “Antisense composition and method for treating cancer” (AVI BioPharma, Inc., priority 2004, dated 2008).

Legend:
HCT-116 = HCT-116 cells treated with sulindac sulfide, apoptosis and proliferation; assay type: cell-based, human; conditions: 100 μM, 3 days
E-Cadherin [1] = test: HCT-116 cells treated with sulindac sulfide, E-Cadherin by RT-PCR; assay type: cell-based, human; conditions: 100 μM, 3 days
Procedure: (§1) For chemopreventive studies, we treated the human CRC cell line HCT-116 with sulindac sulfide (100 μM) or vehicle for 3 days and analyzed SNAIL and E-Cadherin by RT-PCR. In order to evaluate frequency of SNAIL overexpression in human colon cancer, we immunohistochemically probed a tissue array using a poly clonal antibody. Finally, to determine whether SNAIL is implicated in E-cadherin donwregulation in CRC, we treated 10 week old male MIN mice with antisense PMO to SNAIL (250 μg/day for 5 weeks) and examined E-cadherin levels in the uninvolved intestine using Western blot analysis.

SNAIL [2] = test: HCT-116 cells treated with sulindac sulfide, SNAIL by RT-PCR; assay type: cell-based, human; conditions: 100 μM, 3 days, p=0.007
Procedure: as §1

activated caspase 3 = test: MIN mice, immunohistochemical analysis of intestinal segments for apoptosis (activated caspase 3); assay type: in vivo; conditions: daily i.p. 5 weeks, 200 μg/20 g mouse, immunohistochemistry, control 1.00 ± 0.74, p < 0.05
Procedure: (§2) Sixteen MIN mice (9-10 week old) were randomized to daily i.p. injections for 5 weeks with either saline or anti-SNAIL phosphorodiamidate morpholino antisense oligomers (PMO; 200 μg/20 g mouse). Animals were given BrdU 2 h prior to sacrifice and intestinal tumors were scored under magnification by observers blinded to treatment group. Immunohistochemical analysis was performed on formalin fixed intestinal segments for proliferation (BrdU labeling), apoptosis (using activated caspase 3) and SNAIL downregulation. The samples were scored by a gastrointestinal pathologist.

APC^MIN mouse = test: MIN mice, anti-SNAIL PMO daily i.p. 5 weeks, intestinal tumors scored; assay type: in vivo; conditions: 200 μg/20 g mouse
Procedure: as §2

[3] = tested on: mucosal proliferation (BrdU labeling); test: MIN mice, immunohistochemical analysis of intestinal segments for proliferation (BrdU labeling); assay type: in vivo; conditions: daily i.p. 5 weeks, 200 μg/20 g mouse, BrdU 2 h prior to sacrifice, control 8.92 ± 8.00, p < 0.05
Procedure: as §2

SNAIL [4] = test: MIN mice, immunohistochemical analysis of intestinal segments for SNAIL downregulation; assay type: in vivo; conditions: daily i.p. 5 weeks, 200 μg/20 g mouse
Procedure: as §2

Apc^Min/+ (MIN) mouse = test: MIN mouse, antisense SNAIL PMO IP for four weeks, adenomatous polyp / tumor formation; assay type: in vivo; conditions: MIN mice, 4 weeks treatment, IP 250 μg per day, five days per week
Excerpt: The Apc^Min/+ (MIN) mouse is a model for colorectal cancer and was used by the inventors to study the effects of antisense SNAIL PMO on the incidence and development of intestinal precancerous lesions (see e.g. Examples 2&3). The MIN mouse has a germ-line mutation in the adenomatous polyposis coli (Apc) gene which leads to familial adenomatous polyposis (FAP). Inactivation of Apc is found in 80% of sporadic human colorectal cancers and in humans with FAP (Kinzler and Vogelstein 1996). The MIN mouse model mimics the rapid development of adenomatous polyps that affect humans with germ-line inactivation of one Apc gene and therefore is a respected model for human colon carcinogenesis.
This observation clearly supports the role of SNAIL in the progression of colon carcinogenesis and as a potent target for anti-carcinogenic therapies.
Ten week-old MIN mice were injected intraperitonealy (IP) with SNAIL PMO (SEQ ID NO: 11) at a dose of 250 μg per day, five days per week for four weeks. Control mice were not injected with any antisense compound and were allowed to develop colon cancers.

MIN mice = test: Hair loss (alopecia) in PMO treated MIN mice; assay type: in vivo, mouse; conditions: antisense treated MIN mice, Example 3
Excerpt: As described above, SNAIL binds the E-box motifs of E-cadherin, and therefore inhibits E-cadherin expression. E cadherin is required for proper hair follicle cycling (Young, Boussadia et al. 2003). E-cadherin binds with β-catenin altering its location within the cell as well as reducing its availability. Decreasing the level of SNAIL leads to increased E-cadherin which then limits the availability of β-catenin. The decrease in β-catenin leads to an increase in genes in the NF-kappa beta pathway, including Fas and TRAF1. […] Antisense SNAIL PMO administered systemically (e.g. intravenous injection as in Example 3) could cause alopecia through Fas-mediated apoptosis of hair follicle cells or because E cadherin levels have increased sufficiently to cause abnormal hair follicle cycling.
as §2

E-cadherin [5] = test: MIN mice treated with antisense PMO to SNAIL, E-cadherin in uninvolved intestine by Western blot; assay type: in vivo, mouse; conditions: 10 week old male MIN mice, 250 μg/day for 5 weeks, p=0.027
Procedure: as §1

| Compound | apoptosis (HCT-116) | proliferation (HCT-116) | E-cadherin expression (E-Cadherin [1]) | SNAIL expression (% of vehicle) (SNAIL [2]) | Cleaved Caspase-3 (Arbit. Units) (activated caspase 3) | Tumor incidence (%) (APC^MIN mouse; control 25.06 ± 4.10, p < 0.05) | anti-tumorigenic effect (decrease) (APC^MIN mouse; versus saline control) [%] | BrdU Positive (% Total) [3] [% Total] | SNAIL (Arbit. Units) (SNAIL [4]; immunohistochemistry, control 2.58 ± 0.67, p < 0.05) | suppression of SNAIL protein expression (SNAIL [4]; versus saline control) [%] | reduction in formation of adenomatous polyps, colon (Apc^Min/+ (MIN) mouse) [%] | reduction in formation of adenomatous polyps, proximal bowel (Apc^Min/+ (MIN) mouse) [%] | total number of tumors reduced (Apc^Min/+ (MIN) mouse) [%] | hair loss (alopecia) (MIN mice) | hair loss (alopecia) (MIN mice; listed as Antisense SNAIL PMO) | increase in intestinal E-cadherin protein (E-cadherin [5]) [%] |
| --- | --- | --- | --- | --- | --- | --- | --- | --- | --- | --- | --- | --- | --- | --- | --- | --- |
| CSc1ccc(/C=C2/C(C)=C(CC(=O)O)c3cc(F)ccc32)cc1 [sulindac sulfide] | induced apoptosis | inhibited proliferation | induction | 39.2 % of vehicle |  |  |  |  |  |  |  |  |  |  |  |  |
| SNAIL PMO: phosphorodiamidate morpholino antisense oligomer GGAGCGCGGCATGTTGGCC, target ncts. 8-26 of GenBank M95604 (all phosphorodiamidate morpholino (PMO)) |  |  |  |  | 1.50 ± 0.65 | 19.57 ± 6.16 | 22 | 3.43 ± 3.80 | 2.00 ± 0.58 | 23 | 44.1 | 41.6 | 21.9 | pronounced hair loss (alopecia) | induce alopecia | 26 |
